Source: paper PMC5464333, “The binding orientations of structurally-related ligands can differ; A cautionary note” (Neuropharmacology, 2017)
Changes are numbered by the printed parent chain. Like-named read-outs stand apart in the source and are kept apart here. Each block holds one molecule with its values, some of them ahead of it.

Tests used:
[1] = target: T1, 5-HT3 receptor (Homo sapiens, UniProt P46098); test: Affinities from binding tropisetron, granisetron and their analogues at 5-HT3 receptors; details: for Ki / pKi Mean ± SEM: 5-HT3 receptor; for Fold change: Ki relative to parent scaffold
T1 construct: expressed in transfected cells; host or cells: HEK293, transient, pcDNA3.1
T1 sequence (P46098 24-478): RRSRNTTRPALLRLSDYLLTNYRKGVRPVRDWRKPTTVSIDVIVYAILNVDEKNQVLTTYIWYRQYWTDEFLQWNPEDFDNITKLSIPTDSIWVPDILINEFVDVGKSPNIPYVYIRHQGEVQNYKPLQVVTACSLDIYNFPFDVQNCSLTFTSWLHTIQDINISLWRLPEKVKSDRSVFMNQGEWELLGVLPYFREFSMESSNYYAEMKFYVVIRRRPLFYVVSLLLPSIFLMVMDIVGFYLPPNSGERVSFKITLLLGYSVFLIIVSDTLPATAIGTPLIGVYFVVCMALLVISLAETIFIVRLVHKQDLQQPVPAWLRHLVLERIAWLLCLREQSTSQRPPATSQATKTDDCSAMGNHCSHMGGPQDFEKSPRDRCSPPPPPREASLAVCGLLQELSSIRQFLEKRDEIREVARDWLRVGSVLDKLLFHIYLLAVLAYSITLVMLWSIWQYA
Protocol: (§1) Human 5-HT3A subunit cDNA (Accession: P46098, kindly provided by J. Peters, Dundee University, UK) was cloned into pcDNA3.1 for expression in HEK293 cells. […] Cells were transiently transfected with either of these cDNA constructs using polyethyleneimine (PEI: 25 kDa, linear, powder, Polysciences Inc., Eppelheim, Germany). 30 μl of PEI (1 mg ml^−1), 5 μg cDNA and 1 ml DMEM were incubated for 10 min at room temperature, added drop wise to a 90 mm plate of 70–80% conﬂuent HEK293 cells, and incubated for 2–3 days before use.
(§2) Transfected HEK 293 cells were scraped into 0.6 ml of ice-cold 10 mM HEPES buffer (pH 7.4) and frozen. After thawing, they were washed with HEPES buffer, homogenised by trituration through a 25 gauge (0.5 mm) needle, and 50 μg of cell suspension incubated in 0.5 ml HEPES buffer containing different concentrations of radioligand. […] Equilibrium reactions were incubated on ice for at least 1 h and terminated by vacuum filtration onto Whatman GF/B filters wetted with 0.3% polyethyleneimine, followed by two rapid washes with 2.5 ml ice cold buffer. Radioactivity was measured by scintillation in Ultima Gold XR (Perkin Elmer, Waltham, MA) using a Tri-Carb 2100 TR (PerkinElmer) scintillation counter. Final counts were monitored to ensure that binding never exceeded 10% of the added concentrations of radioligands.

[2] = tested on: α7 nACh receptor; details: cited from earlier work
[3] = target: T2, α7 nACh receptor (UniProt P22770+P23979, M226I/T225I)
Protocol: as §1, §2
All data were analysed using GraphPad Prism v5. Individual saturation binding experiments were fitted to the equation below and the fitted values averaged to yield mean ± sem of n independent experiments: y=[…] where Bmax is maximum binding at equilibrium, Kd is the equilibrium dissociation constant and [L] is the free concentration of radioligand. Affinities were compared using 1-way ANOVA and a Dunnett's Post-Test.

[4] = tested on: Untransfected HEK293 cells; test: Radioligand binding at untransfected HEK293 cells; design: species or system human
Protocol: Human embryonic kidney (HEK) 293 cells were grown on 90 mm round tissue culture plates as monolayers in DMEM/F12 (Gibco, Life Technologies, CA, USA) supplemented with 10% fetal bovine serum (FBS; Sigma Aldrich) at 37 °C in a moist atmosphere containing 5% CO2.

[5] = target: T2, α7 nACh receptor; test: Competition binding with [3H]epibatidine at α7 nACh receptors; design: a chimaera of the chick α7 nACh extracellular domain fused to the 5-HT3 transmembrane/intracellular domains; expressed in transfected cells; host or cells: HEK293 cells, transient transfection (pcDNA3.1, PEI); species or system chick
Protocol: as §1, with “J.” for “J. Peters, Dundee University, UK) was cloned into pcDNA3.1 for expression in HEK293 cells.”, “use. […] Non-specific binding was determined with 30 μM (-)/-nicotine. Equilibrium reactions were incubated on ice for at least 1 h and bound radioligand measured using the same method as described above.” for “use.”

[6] = target: T3, 5-HT3A receptor P155C mutant (Homo sapiens, UniProt P46098, P150C); test: Saturation radioligand binding, 5-HT3A P155C mutant; details: P155C versus wild type
T3 construct: expressed in transfected cells; host or cells: HEK293, transient, pcDNA3.1
T3 sequence (P46098 24-478 P150C): T1 sequence (P46098 24-478) with P127C
Protocol: (§3) Mutagenesis was performed using the QuikChange method (Agilent Technologies Inc., California, USA). Cysteine residues were substituted for amino acids throughout each of the binding loops A - E (Fig. 1). To facilitate comparisons with previous work, we have used the numbering of the equivalent residues in the mouse 5-HT3A subunit (Q6J1J7).
as §1
(§4) Transfected HEK 293 cells were scraped into 0.6 ml of ice-cold 10 mM HEPES buffer (pH 7.4) and frozen. […] Radioactivity was measured by scintillation in Ultima Gold XR (Perkin Elmer, Waltham, MA) using a Tri-Carb 2100 TR (PerkinElmer) scintillation counter. Final counts were monitored to ensure that binding never exceeded 10% of the added concentrations of radioligands.
(§5) All data were analysed using GraphPad Prism v5. […]

[7] = target: T4, 5-HT3A receptor L126C mutant (Homo sapiens, UniProt P46098, L121C); test: Saturation radioligand binding, 5-HT3A L126C mutant; details: L126C versus wild type
T4 construct: expressed in transfected cells; host or cells: HEK293, transient, pcDNA3.1
T4 sequence (P46098 24-478 L121C): T1 sequence (P46098 24-478) with L98C
Protocol: as §3, §1, §4, §5

[8] = target: AChBP; details: AChBP used for co-crystallisation; ref Hibbs et al., 2009; read-out: affinity; cited from earlier work
[9] = target: T5, 5-HT3A receptor R92C mutant (Homo sapiens, UniProt P46098, R87C); test: Saturation radioligand binding, 5-HT3A R92C mutant; details: R92C versus wild type
T5 construct: expressed in transfected cells; host or cells: HEK293, transient, pcDNA3.1
T5 sequence (P46098 24-478 R87C): T1 sequence (P46098 24-478) with R64C
Protocol: as §3, §1, §4, §5

[10] = target: T6, 5-HT3A receptor I71C mutant (Homo sapiens, UniProt P46098, I66C); test: Saturation radioligand binding, 5-HT3A I71C mutant; details: I71C versus wild type
T6 construct: expressed in transfected cells; host or cells: HEK293, transient, pcDNA3.1
T6 sequence (P46098 24-478 I66C): T1 sequence (P46098 24-478) with I43C
Protocol: as §3, §1, §4, §5

[11] = target: T7, 5-HT3A receptor wild type (Homo sapiens, UniProt P46098); test: Saturation radioligand binding, wild type 5-HT3A receptor in HEK293; details: wild type 5-HT3 receptors
T7 construct: expressed in transfected cells; host or cells: HEK293, transient, pcDNA3.1
T7 sequence (P46098 24-478): T1 sequence (P46098 24-478)
Protocol: as §1, §2, §5

[12] = target: α7 nACh receptor; details: low potency agonist, cited from earlier work

T2 sequence (P22770+P23979 fused P22770:T225I/P22770:M226I): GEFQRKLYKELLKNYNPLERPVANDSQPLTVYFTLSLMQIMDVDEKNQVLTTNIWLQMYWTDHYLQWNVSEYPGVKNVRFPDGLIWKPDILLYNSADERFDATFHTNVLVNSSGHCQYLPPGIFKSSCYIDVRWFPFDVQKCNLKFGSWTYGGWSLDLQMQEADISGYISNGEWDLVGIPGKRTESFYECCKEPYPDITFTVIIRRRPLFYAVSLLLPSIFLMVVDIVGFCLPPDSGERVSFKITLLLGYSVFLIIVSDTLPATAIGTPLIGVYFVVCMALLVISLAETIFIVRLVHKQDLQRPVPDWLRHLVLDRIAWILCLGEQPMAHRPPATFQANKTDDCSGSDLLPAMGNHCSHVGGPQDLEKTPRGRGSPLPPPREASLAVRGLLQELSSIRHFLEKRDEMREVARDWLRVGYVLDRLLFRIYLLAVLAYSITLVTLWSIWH

Compound: COc1ccc2[nH]cc(C(=O)O[C@H]3C[C@H]4CC[C@@H](C3)N4C)c2c1 [Compound 1, (1R,3r,5S)-8-methyl-8-azabicyclo[3.2.1]octan-3-yl 5-methoxy-1H-indole-3-carboxylate]
Ki [1]: 95.5 nM | pKi Mean ± SEM [1]: 7.02 ± 0.03 | Fold change [1]: 133 fold

Compound: COc1ccc2c(C(=O)O[C@H]3C[C@H]4CC[C@@H](C3)N4C)c[nH]c2c1 [Compound 2, (1R,3r,5S)-8-methyl-8-azabicyclo[3.2.1]octan-3-yl 6-methoxy-1H-indole-3-carboxylate]
Ki [1]: 182 nM | pKi Mean ± SEM [1]: 6.74 ± 0.04 | Fold change [1]: 253 fold

Compound: COc1cccc2c(C(=O)O[C@H]3C[C@H]4CC[C@@H](C3)N4C)c[nH]c12 [Compound 3, (1R,3r,5S)-8-methyl-8-azabicyclo[3.2.1]octan-3-yl 7-methoxy-1H-indole-3-carboxylate]
Ki [1]: 30.2 nM | pKi Mean ± SEM [1]: 7.52 ± 0.12 | Fold change [1]: 42 fold

Compound: O=C(O[C@H]1C[C@H]2CC[C@@H](C1)N2Cc1ccccc1)c1c[nH]c2ccccc12 [Compound 4, (1R,3r,5S)-8-benzyl-8-azabicyclo[3.2.1]octan-3-yl 1H-indole-3-carboxylate]
Ki [1]: 1440 nM | pKi Mean ± SEM [1]: 5.84 ± 0.20 | Fold change [1]: 2007 fold

Compound: COc1cccc2c(C(=O)N[C@H]3C[C@H]4CCC[C@@H](C3)N4C)nn(C)c12 [Compound 7, 7-methoxy-1-methyl-N-((1R,3r,5S)-9-methyl-9-azabicyclo[3.3.1]nonan-3-yl)-1H-indazole-3-carboxamide]
Ki [1]: 120 nM | pKi Mean ± SEM [1]: 6.92 ± 0.24 | Fold change [1]: 255 fold

Compound: CN1C2CCC1CC(NC(=O)c1nn(C)c3ccccc13)C2 (centres unmarked) [LY-278,584]
binding ([2]; α7 nACh receptor, ref Macor et al., 2001): cannot be detected

Compound: Clc1ccc(C2CC3CCC2N3)cn1 (centres unmarked) [[^3H]epibatidine]
Kd [3]: 8.81 ± 0.13 nM

Compound: CN1C2CCCC1CC(NC(=O)c1nn(C)c3ccccc13)C2 (centres unmarked) [[^3H]granisetron]
saturable binding [4]: no saturable binding

Compound: [3H]C([3H])([3H])N1C2CCC1CC(OC(=O)c1c[nH]c3ccccc13)C2 (centres unmarked) [[^3H]tropisetron]
saturation binding [3]: could not be detected | saturable binding [4]: no saturable binding

difference in affinity at 5-HT3 versus α7 nACh receptors ([5]; 5-HT3 versus α7 nACh): > 1000 fold | Ki ([5]; competition with [3H]epibatidine): 1580 ± 840 nM | decrease in affinity [6]: 5 fold | change in affinity [7]: 2.5 fold | reduction in affinity [9]: 2.5 fold | saturation binding ([3]; α7 nACh receptors): undetectable | change in affinity [10]: 1.9 fold | Non-specific binding, of total [11]: 30.3 ± 1.8%
Compound: CN1[C@@H]2CC[C@H]1C[C@@H](OC(=O)c1c[nH]c3ccccc13)C2 [tropisetron, Tropisetron]
Ki ([2]; α7 nACh receptors, ref Macor et al. (2001)): 6.9 nM | Kd [8]: 500 nM | EC50 ([12]; ref Macor et al., 2001): 1300 nM | EC50 ([12]; ref Papke et al., 2005): 600 nM
